From article PMC11003488 (Journal of Enzyme Inhibition and Medicinal Chemistry, 2023)

Assays:
NCI-H322M = assay: NCI-60 SRB growth inhibition, one-dose and five-dose; assay type: cell-based; details: Homo sapiens
HCC-2998 = assay: as above; assay type: cell-based; details: Homo sapiens
786-0 = assay: as above; assay type: cell-based; details: Homo sapiens
RXF 393 = assay: as above; assay type: cell-based; details: Homo sapiens
NCI-H522 = assay: as above; assay type: cell-based; details: Homo sapiens
NCI/ADR-RES = assay: as above; assay type: cell-based; details: Homo sapiens
IGROV1 = assay: as above; assay type: cell-based; details: Homo sapiens
HS 578 T = assay: as above; assay type: cell-based; details: Homo sapiens
SR = assay: as above; assay type: cell-based; details: Homo sapiens
EKVX = assay: as above; assay type: cell-based; details: Homo sapiens
SNB-75 = assay: as above; assay type: cell-based; details: Homo sapiens
NCI-H460 = assay: as above; assay type: cell-based; details: Homo sapiens
UACC-62 = assay: as above; assay type: cell-based; details: Homo sapiens
MCF7 = assay: as above; assay type: cell-based; details: Homo sapiens
HCT-15 = assay: as above; assay type: cell-based; details: Homo sapiens
M14 = assay: as above; assay type: cell-based; details: Homo sapiens
OVCAR-3 = assay: as above; assay type: cell-based; details: Homo sapiens
HCT-116 = assay: as above; assay type: cell-based; details: Homo sapiens
SK-MEL-28 = assay: as above; assay type: cell-based; details: Homo sapiens
SF-539 = assay: as above; assay type: cell-based; details: Homo sapiens
A549/ATCC = assay: as above; assay type: cell-based; details: Homo sapiens
HL-60(TB) = assay: cells; assay type: cell-based; details: Homo sapiens
PC-3 = assay: NCI-60 SRB growth inhibition, one-dose and five-dose; assay type: cell-based; details: Homo sapiens
T-47D = assay: as above; assay type: cell-based; details: Homo sapiens, T47D
K-562 = assay: as above; assay type: cell-based; details: Homo sapiens
MOLT-4 = assay: as above; assay type: cell-based; details: Homo sapiens
SF-268 = assay: as above; assay type: cell-based; details: Homo sapiens
[1] = tested on: NCI 60-cell line panel (full panel); assay: NCI-60 SRB growth inhibition, full panel mean / MG-MID; assay type: cell-based, human
BT-549 = assay: NCI-60 SRB growth inhibition, one-dose and five-dose; assay type: cell-based; details: Homo sapiens
CAKI-1 = assay: as above; assay type: cell-based; details: Homo sapiens
NCI-H23 = assay: as above; assay type: cell-based; details: Homo sapiens
U251 = assay: as above; assay type: cell-based; details: Homo sapiens
OVCAR-5 = assay: as above; assay type: cell-based; details: Homo sapiens
OVCAR-8 = assay: as above; assay type: cell-based; details: Homo sapiens, OVCAR-8, read-out: percent growth inhibition
SNB-19 = assay: as above; assay type: cell-based; details: Homo sapiens
HOP-92 = assay: as above; assay type: cell-based; details: Homo sapiens
SN12C = assay: as above; assay type: cell-based; details: Homo sapiens
SK-MEL-2 = assay: as above; assay type: cell-based; details: Homo sapiens, SK-MEL-2, read-out: percent growth inhibition
RPMI-8226 = assay: as above; assay type: cell-based; details: Homo sapiens
TK-10 = assay: as above; assay type: cell-based; details: Homo sapiens
A498 = assay: as above; assay type: cell-based; details: Homo sapiens
SW-620 = assay: as above; assay type: cell-based; details: Homo sapiens
[2] = read-out: percent growth inhibition

Compound `CC(=O)Nc1ccc(/C=C/C(=O)c2cccc(NCc3csc4ccccc34)c2)cc1` [Compound 5i, (E)-N-(4–(3-(3-((benzo[b]thiophen-3-ylmethyl)amino)phenyl)-3-oxoprop-1-en-1-yl)phenyl) acetamide] has a GI50 (NCI-H322M) of 17.5 µM, an inhibition at 10 µM (NCI-H322M; [2]) of 41.2% and a GI50 (HCC-2998; HCC 2998) of 12.4 µM. For the same compound, the inhibition at 10 µM (HCC-2998; HCC 2998, read-out: percent growth inhibition) was 56%, the GI50 (786-0; 786-0) was 11.4 µM and the inhibition at 10 µM (786-0; 786-0, read-out: percent growth inhibition) was 81.8%. The GI50 (RXF 393; RXF 393) was 10 µM, the inhibition at 10 µM (RXF 393; RXF 393, read-out: percent growth inhibition) was 93.2% and the GI50 (NCI-H522; NCI-H522) was 5.78 µM. It also gave an inhibition at 10 µM (NCI-H522; NCI-H522, read-out: percent growth inhibition) of 87.6%, a GI50 (NCI/ADR-RES) of 2.79 µM and an inhibition at 10 µM (NCI/ADR-RES; [2]) of 117%. It also gave a GI50 (IGROV1; IGROV-1) of 4.18 µM, an inhibition at 10 µM (IGROV1; IGROV-1, read-out: percent growth inhibition) of 56.9% and a GI50 (HS 578 T) of 4.49 µM. The inhibition at 10 µM (HS 578 T; [2]) was 68.5%, the GI50 (SR) was 2.79 µM and the GI50 (EKVX) was 10.8 µM. For the same compound, the inhibition at 10 µM (EKVX; [2]) was 73%, the GI50 (SNB-75; SNB-75) was 3.39 µM and the inhibition at 10 µM (SNB-75; SNB-75, read-out: percent growth inhibition) was 30.5%. For the same compound, the GI50 (NCI-H460; NCI-H460) was 3.84 µM, the inhibition at 10 µM (NCI-H460; NCI-H460, read-out: percent growth inhibition) was 88.9% and the GI50 (UACC-62; UACC-62) was 6.44 µM. It also gave an inhibition at 10 µM (UACC-62; UACC-62, read-out: percent growth inhibition) of 76.7%, a GI50 (MCF7; MCF7) of 2.4 µM and an inhibition at 10 µM (MCF7; MCF7, read-out: percent growth inhibition) of 130%. It also gave a GI50 (HCT-15; HCT-15) of 2.1 µM, an inhibition at 10 µM (HCT-15; HCT-15, read-out: percent growth inhibition) of 142% and a GI50 (M14; M14) of 10.9 µM. It also gave an inhibition at 10 µM (M14; M14, read-out: percent growth inhibition) of 57.7%, a GI50 (OVCAR-3; OVCAR-3) of 3.47 µM and an inhibition at 10 µM (OVCAR-3; OVCAR-3, read-out: percent growth inhibition) of 133%. The GI50 (HCT-116; HCT-116, HCT-116, five-dose screening) was 2.02 µM, the inhibition at 10 µM (HCT-116; HCT-116, read-out: percent growth inhibition) was 180% and the GI50 (SK-MEL-28; SK-MEL-28) was 11.9 µM. For the same compound, the inhibition at 10 µM (SK-MEL-28; SK-MEL-28, read-out: percent growth inhibition) was 53.4%, the GI50 (SF-539; SF-539) was 2.74 µM and the inhibition at 10 µM (SF-539; SF-539, read-out: percent growth inhibition) was 171%. For the same compound, the GI50 (A549/ATCC; A549) was 17 µM, the inhibition at 10 µM (A549/ATCC; A549, read-out: percent growth inhibition) was 45.8% and the GI50 (HL-60(TB); HL-60) was 3.53 µM. The inhibition at 10 µM (HL-60(TB); HL-60, read-out: percent growth inhibition) was 123%, the GI50 (PC-3; PC-3) was 4.57 µM and the inhibition at 10 µM (PC-3; PC-3, read-out: percent growth inhibition) was 70.8%. The GI50 (T-47D) was 4.14 µM, the inhibition at 10 µM (T-47D; [2]) was 79.7% and the GI50 (K-562; K562) was 3.07 µM. It also gave an inhibition at 10 µM (K-562; K562, read-out: percent growth inhibition) of 114%, a GI50 (MOLT-4; MOLT-4) of 2.73 µM and an inhibition at 10 µM (MOLT-4; MOLT-4, read-out: percent growth inhibition) of 111%. It also gave a GI50 (SF-268; SF-268) of 12.7 µM, an inhibition at 10 µM (SF-268; SF-268, read-out: percent growth inhibition) of 80% and a GI50 ([1]; Homo sapiens, 60 cell, read-out: Full panel GI50 mean) of 7.06 µM. For the same compound, the “Full panel Mean GI %” value ([1]; mean over NCI-60 panel, single dose 10 µM) was 82.81%, the GI50 (BT-549; BT-549) was 4.29 µM and the inhibition at 10 µM (BT-549; BT-549, read-out: percent growth inhibition) was 83.6%. For the same compound, the GI50 (CAKI-1; CAKI-1) was 18.4 µM, the inhibition at 10 µM (CAKI-1; CAKI-1, read-out: percent growth inhibition) was 57.7% and the GI50 (NCI-H23; NCI-H23) was 9.1 µM. For the same compound, the inhibition at 10 µM (NCI-H23; NCI-H23, read-out: percent growth inhibition) was 57.5%, the GI50 (U251; U-251) was 2.24 µM and the inhibition at 10 µM (U251; U-251, read-out: percent growth inhibition) was 165%. It also gave a GI50 (OVCAR-5; OVCAR-5) of 13 µM, an inhibition at 10 µM (OVCAR-5; OVCAR-5, read-out: percent growth inhibition) of 30.4% and an inhibition at 10 µM (OVCAR-8) of 131%. The GI50 (SNB-19; SNB-19) was 3.76 µM, the inhibition at 10 µM (SNB-19; SNB-19, read-out: percent growth inhibition) was 98% and the GI50 (HOP-92; HOP-92) was 18.3 µM. It also gave an inhibition at 10 µM (HOP-92; HOP-92, read-out: percent growth inhibition) of 12.3%, a GI50 (SN12C) of 3.29 µM and an inhibition at 10 µM (SN12C; [2]) of 93.3%. The inhibition at 10 µM (SK-MEL-2) was 39.9%, the GI50 (RPMI-8226; RPMI-8226) was 2.56 µM and the inhibition at 10 µM (RPMI-8226; RPMI-8226, read-out: percent growth inhibition) was 121%. The GI50 (TK-10; TK-10) was 17.6 µM, the inhibition at 10 µM (TK-10; TK-10, read-out: percent growth inhibition) was 23.9% and the GI50 (A498; A498) was 17.4 µM. The inhibition at 10 µM (A498; A498, read-out: percent growth inhibition) was 9.33%, the GI50 (SW-620; SW-620) was 2.6 µM and the inhibition at 10 µM (SW-620; SW-620, read-out: percent growth inhibition) was 123%.
